The values below come from ChEMBL document CHEMBL5214890 (Eur J Med Chem, 2021).

Where a SMILES comes first, the peptide text is derived from it. [ ]: non-standard residue; d: D form. ξ: configuration not given here. Thr(3ξ) = CC(O)[C@H](N)C(=O)O; Aib = CC(C)(N)C(=O)O

What is called EC50 is the concentration at which the effect is half-maximal.

Holding throughout (type): functional, cell-based
Experiment [1] has as its target T1, Glucagon-like peptide 1 receptor (Homo sapiens, UniProt P43220). Kind of experiment: Agonist activity at human GLP-1R expressed in HEK293 cells incubated for 30 mins and assessed as increase in cAMP accumulation measured by HTRF assay. A general note: Changes in cAMP serve as a functional read-out for many G protein-coupled receptors.
The target in experiment [2] is T1, Glucagon-like peptide 1 receptor. Kind of experiment: Agonist activity at human GLP-1R expressed in HEK293 cells incubated for 30 mins and assessed as increase in cAMP accumulation measured by HTRF assay relative to control. The arrangement: concentration or dose not given beside the values.
The next experiment addresses Glucagon receptor (Homo sapiens, UniProt P47871). Kind of experiment: Agonist activity at human GCGR expressed in HEK293 cells incubated for 30 mins and assessed as increase in cAMP accumulation measured by HTRF assay.

T1 sequence (P43220 whole entry): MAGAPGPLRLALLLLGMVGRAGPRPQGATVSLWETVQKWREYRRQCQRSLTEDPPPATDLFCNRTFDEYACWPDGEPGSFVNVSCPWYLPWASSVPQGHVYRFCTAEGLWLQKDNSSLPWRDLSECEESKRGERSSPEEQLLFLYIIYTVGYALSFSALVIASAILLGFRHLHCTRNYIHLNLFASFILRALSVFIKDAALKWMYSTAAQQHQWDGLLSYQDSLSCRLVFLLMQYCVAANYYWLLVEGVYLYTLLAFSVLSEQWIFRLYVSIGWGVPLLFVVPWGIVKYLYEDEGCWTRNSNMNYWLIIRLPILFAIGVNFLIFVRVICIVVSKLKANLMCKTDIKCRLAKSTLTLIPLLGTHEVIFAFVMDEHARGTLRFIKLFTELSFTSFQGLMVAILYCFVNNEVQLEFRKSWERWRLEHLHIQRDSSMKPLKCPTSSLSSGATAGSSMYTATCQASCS
Glucagon receptor, sequence (P47871 whole entry): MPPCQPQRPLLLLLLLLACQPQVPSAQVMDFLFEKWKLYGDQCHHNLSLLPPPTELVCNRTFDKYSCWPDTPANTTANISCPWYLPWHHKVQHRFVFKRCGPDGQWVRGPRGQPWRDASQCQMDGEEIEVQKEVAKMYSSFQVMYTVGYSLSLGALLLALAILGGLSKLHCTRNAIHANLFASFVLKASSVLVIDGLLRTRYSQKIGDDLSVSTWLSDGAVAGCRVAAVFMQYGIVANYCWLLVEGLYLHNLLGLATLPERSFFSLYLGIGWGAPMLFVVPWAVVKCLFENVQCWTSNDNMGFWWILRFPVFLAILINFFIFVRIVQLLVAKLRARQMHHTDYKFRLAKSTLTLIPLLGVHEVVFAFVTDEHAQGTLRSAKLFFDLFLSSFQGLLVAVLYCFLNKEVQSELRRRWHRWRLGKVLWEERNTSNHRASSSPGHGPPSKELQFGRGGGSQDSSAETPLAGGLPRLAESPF

Regarding `CC[C@H](C)[C@H](NC(=O)[C@H](CC(C)C)NC(=O)[C@H](Cc1c[nH]c2ccccc12)NC(=O)[C@H](CCC(=O)O)NC(=O)[C@@H](NC(=O)[C@H](Cc1ccccc1)NC(=O)[C@H](CCC(=O)O)NC(=O)[C@H](CCCCN)NC(=O)[C@H](C)NC(=O)[C@H](C)NC(=O)[C@H](CCC(=O)O)NC(=O)[C@H](CCC(=O)O)NC(=O)[C@H](CCC(=O)O)NC(=O)[C@H](CC(C)C)NC(=O)[C@H](Cc1ccc(O)cc1)NC(=O)[C@H](CCC(=O)O)NC(=O)[C@@H](NC(=O)[C@@H](NC(=O)[C@H](CC(=O)O)NC(=O)[C@H](CC(N)=O)NC(=O)[C@@H](NC(=O)[C@H](Cc1ccc(O)cc1)NC(=O)[C@@H](NC(=O)CNC(=O)[C@H](CCC(=O)O)NC(=O)C(C)(C)NC(=O)[C@@H](N)Cc1c[nH]cn1)[C@@H](C)O)[C@@H](C)O)C(C)C)[C@@H](C)O)[C@@H](C)CC)C(=O)N[C@@H](CCCCN)C(=O)NCC(=O)N[C@@H](CCCCN)C(N)=O` (H-H[Aib]EGTYTNDVTEYLEEEAAKEFIEWLIKGK-NH2), the EC50 in experiment [1] was 0.041 nM; at Glucagon receptor, over 1000 nM. Also, in experiment [2] (filed as agonist), the Activity was determined as 100%.
In the case of H-HSQGTYTNDVTEYLDSRRAQDFIEWLIKGK-NH2, the EC50 was 0.12 nM in experiment [1] and 2.6 nM on Glucagon receptor. In addition, in experiment [2], the Activity worked out at 34.2%.
For “H-HSQGTYTNDVTQYLDSRRAQQFIEWLMNTKRNRNNIA-NH2” the same measures were 0.62 nM, 0.93 nM and 6.6%.
The like results for “H-HSQGTYTNDVTEYLDSRRAQDFIEWLKNGGPSSGAPPPS-NH2” were, in that order, 0.22 nM, 39 nM and 18.6%.
The like results for `CC[C@H](C)[C@H](NC(=O)[C@H](Cc1ccccc1)NC(=O)[C@H](CC(=O)O)NC(=O)[C@H](CCC(N)=O)NC(=O)[C@H](C)NC(=O)[C@H](CCCNC(=N)N)NC(=O)[C@H](CCCNC(=N)N)NC(=O)[C@H](CO)NC(=O)[C@H](CC(=O)O)NC(=O)[C@H](CC(C)C)NC(=O)[C@H](Cc1ccc(O)cc1)NC(=O)[C@H](CCCCN)NC(=O)[C@H](CO)NC(=O)[C@@H](NC(=O)[C@H](CC(=O)O)NC(=O)[C@H](CC(N)=O)NC(=O)[C@@H](NC(=O)[C@H](Cc1ccc(O)cc1)NC(=O)[C@@H](NC(=O)CNC(=O)[C@H](CCC(N)=O)NC(=O)[C@H](CO)NC(=O)[C@@H](N)Cc1c[nH]cn1)[C@@H](C)O)[C@@H](C)O)C(C)C)C(=O)N[C@@H](CCC(=O)O)C(=O)N[C@@H](Cc1c[nH]c2ccccc12)C(=O)N[C@@H](CC(C)C)C(=O)N[C@@H](CCSC)C(=O)N[C@@H](CC(N)=O)C(=O)N[C@H](C(N)=O)C(C)O` (stereo partly specified) (H-HSQGTYTNDVSKYLDSRRAQDFIEWLMN[Thr(3ξ)]-NH2) were, in that order, 0.68 nM, 0.41 nM and 6%.
As to “H-HSQGTYTNDVSKYLDSRRAQDFIEWLIKGKPSSGAPPPS-NH2”, the values for the EC50 (in experiment [1]; on Glucagon receptor) were 0.24 nM and 0.85 nM, respectively. In experiment [2], the Activity worked out at 17.1%.
As for H-HSQGTYTNDVTEYLDSRRAQEFIEWLIKGK-NH2, the values for the EC50 (in experiment [1]; at Glucagon receptor) were 0.16 nM and 2.7 nM, respectively. In addition, in experiment [2], the Activity is 25.6%.
Turning to H-HSQGTYTNDVSKYLDSRRAQDFIEWLIKGK-NH2, the EC50 in experiment [1] is 0.14 nM; at Glucagon receptor, 1.3 nM. The Activity in experiment [2] worked out at 29.3%.
`CCCCCCCCCCCCCCCC(=O)N[C@@H](CCC(=O)NCCCC[C@H](NC(=O)[C@H](CO)NC(=O)[C@@H]1CCCN1C(=O)[C@@H]1CCCN1C(=O)[C@@H]1CCCN1C(=O)[C@H](C)NC(=O)CNC(=O)[C@H](CO)NC(=O)[C@H](CO)NC(=O)[C@@H]1CCCN1C(=O)CNC(=O)CNC(=O)[C@H](CC(N)=O)NC(=O)[C@H](CCCCN)NC(=O)[C@H](CC(C)C)NC(=O)[C@H](Cc1c[nH]c2ccccc12)NC(=O)[C@H](CCC(=O)O)NC(=O)[C@@H](NC(=O)[C@H](Cc1ccccc1)NC(=O)[C@H](CC(=O)O)NC(=O)[C@H](CCC(N)=O)NC(=O)[C@H](C)NC(=O)[C@H](CCCNC(=N)N)NC(=O)[C@H](CCCNC(=N)N)NC(=O)[C@H](CO)NC(=O)[C@H](CC(=O)O)NC(=O)[C@H](CC(C)C)NC(=O)[C@H](Cc1ccc(O)cc1)NC(=O)[C@H](CCCCN)NC(=O)[C@H](CO)NC(=O)[C@@H](NC(=O)[C@H](CC(=O)O)NC(=O)[C@H](CC(N)=O)NC(=O)[C@@H](NC(=O)[C@H](Cc1ccc(O)cc1)NC(=O)[C@@H](NC(=O)CNC(=O)[C@H](CCC(N)=O)NC(=O)[C@@H](CO)NC(=O)[C@@H](N)Cc1c[nH]cn1)[C@@H](C)O)[C@@H](C)O)C(C)C)[C@@H](C)CC)C(N)=O)C(=O)O`: the EC50 was 0.086 nM in experiment [1] and 0.28 nM at Glucagon receptor. Besides, in experiment [2] (filed as agonist), the Activity was 47.7%.
The like results for “H-HSQGTYTNDVSKYLDSRRAQDFIEWLIKGKRNRNNIA-NH2” were, in that order, 0.078 nM, 0.28 nM and 52.6%.
As for “H-HSQGTYTNDVSKYLDSRRAQQFIEWLMNTKRNRNNIA-NH2”, the EC50 came to 0.57 nM in experiment [1] and 0.42 nM at Glucagon receptor. Also, in experiment [2], the Activity is 7.2%.
Take `CCCCCCCCCCCCCCCC(=O)N[C@H](CCC(=O)NCCCC[C@H](NC(=O)[C@H](CO)NC(=O)[C@@H](NC(=O)[C@H](CC(=O)O)NC(=O)[C@H](CC(N)=O)NC(=O)[C@@H](NC(=O)[C@H](Cc1ccc(O)cc1)NC(=O)[C@@H](NC(=O)CNC(=O)[C@H](CCC(N)=O)NC(=O)[C@@H](CO)NC(=O)[C@@H](N)Cc1c[nH]cn1)[C@@H](C)O)[C@@H](C)O)C(C)C)C(=O)N[C@@H](Cc1ccc(O)cc1)C(=O)N[C@@H](CC(C)C)C(=O)N[C@@H](CC(=O)O)C(=O)N[C@@H](CO)C(=O)N[C@@H](CCCNC(=N)N)C(=O)N[C@@H](CCCNC(=N)N)C(=O)N[C@@H](C)C(=O)N[C@@H](CCC(N)=O)C(=O)N[C@@H](CC(=O)O)C(=O)N[C@@H](Cc1ccccc1)C(=O)N[C@H](C(=O)N[C@@H](CCC(=O)O)C(=O)N[C@@H](Cc1c[nH]c2ccccc12)C(=O)N[C@@H](CC(C)C)C(=O)N[C@@H](CCCCN)C(=O)N[C@@H](CC(N)=O)C(=O)NCC(=O)NCC(=O)N1CCC[C@H]1C(=O)N[C@@H](CO)C(=O)N[C@@H](CO)C(=O)NCC(=O)N[C@@H](C)C(=O)N1CCC[C@H]1C(=O)N1CCC[C@H]1C(=O)N1CCC[C@H]1C(=O)N[C@@H](CO)C(N)=O)[C@@H](C)CC)C(=O)O`: the 50% effective concentration (EC50) in experiment [1] (hek293) was found to be 0.051 nM. Also, in experiment [2] (filed as agonist), the Activity is 80.4%.
With `CC[C@H](C)[C@H](NC(=O)[C@H](Cc1ccccc1)NC(=O)[C@H](CC(=O)O)NC(=O)[C@H](CCC(N)=O)NC(=O)[C@H](C)NC(=O)[C@H](CCCNC(=N)N)NC(=O)[C@H](CCCNC(=N)N)NC(=O)[C@H](CO)NC(=O)[C@H](CC(=O)O)NC(=O)[C@H](CC(C)C)NC(=O)[C@H](Cc1ccc(O)cc1)NC(=O)[C@H](CCC(N)=O)NC(=O)[C@@H](NC(=O)[C@@H](NC(=O)[C@H](CC(=O)O)NC(=O)[C@H](CC(N)=O)NC(=O)[C@@H](NC(=O)[C@H](Cc1ccc(O)cc1)NC(=O)[C@@H](NC(=O)CNC(=O)[C@H](CCC(N)=O)NC(=O)[C@H](CO)NC(=O)[C@@H](N)Cc1c[nH]cn1)[C@@H](C)O)[C@@H](C)O)C(C)C)[C@@H](C)O)C(=O)N[C@@H](CCC(=O)O)C(=O)N[C@@H](Cc1c[nH]c2ccccc12)C(=O)N[C@@H](CC(C)C)C(=O)N[C@@H](CCSC)C(=O)N[C@@H](CC(N)=O)C(=O)N[C@H](C(N)=O)C(C)O` (stereo partly specified) (H-HSQGTYTNDVTQYLDSRRAQDFIEWLMN[Thr(3ξ)]-NH2), the values for the half-maximal effective concentration (EC50) (in experiment [1]; on Glucagon receptor) were 0.73 nM and 0.43 nM, respectively. Also, the Activity in experiment [2] was 5.6%.
For “H-HSQGTYTNDVTEYLDSRRAQDFIEWLIKGKPSSGAPPPS-NH2” the same measures were 0.45 nM, 1.3 nM and 9.1%.
